Columns and labels:
3533 mRNA = 3533 mRNA regulation by lipid lowering drugs (TaqMan)
Source text: (§1) This example describes the TaqMan™ procedure. The Taqman™ procedure is a quantitative, reverse transcription PCR-based approach for detecting mRNA. The RT-PCR reaction exploits the 5′ nuclease activity of AmpliTaq Gold™ DNA Polymerase to cleave a TaqMan™ probe during PCR. Briefly, cDNA was generated from the samples of interest, e.g., heart, kidney, liver, skeletal muscle, and various vessels, and used as the starting material for PCR amplification. In addition to the 5′ and 3′ gene-specific primers, a gene-specific oligonucleotide probe (complementary to the region being amplified) was included in the reaction (i.e., the Taqman™ probe). The TaqMan™ probe includes the oligonucleotide with a fluorescent reporter dye covalently linked to the 5′ end of the probe (such as FAM (6-carboxyfluorescein), TET (6-carboxy4,7,2′,7′-tetrachlorofluorescein), JOE (6-carboxy-4,5-dichloro-2,7-dimethoxyfluorescein), or VIC) and a quencher dye (TAMRA (6-carboxy-N,N,N′,N′-tetramethylrhodamine) at the 3′ end of the probe.
(§2) During the PCR reaction, cleavage of the probe separates the reporter dye and the quencher dye, resulting in increased fluorescence of the reporter. Accumulation of PCR products is detected directly by monitoring the increase in fluorescence of the reporter dye. When the probe is intact, the proximity of the reporter dye to the quencher dye results in suppression of the reporter fluorescence. During PCR, if the target of interest is present, the probe specifically anneals between the forward and reverse primer sites. The 5′-3′ nucleolytic activity of the AmpliTaq™ Gold DNA Polymerase cleaves the probe between the reporter and the quencher only if the probe hybridizes to the target. The probe fragments are then displaced from the target, and polymerization of the strand continues. The 3′ end of the probe is blocked to prevent extension of the probe during PCR. […] RNA was prepared using the trizol method and treated with DNase to remove contaminating genomic DNA. cDNA was synthesized using standard techniques.

9380 mRNA [1] = assay: 9380 mRNA in livers of marmosets (TaqMan); format: in vivo
53656 mRNA = 53656 mRNA in livers of Marmosets (TaqMan); format: in vivo
10653 mRNA = 10653 mRNA in livers of marmosets treated with lipid-lowering therapies (TaqMan); format: in vivo
8701 mRNA = 8701 mRNA in livers of marmosets treated with lipid-lowering therapies (TaqMan); format: in vivo
17729 mRNA = 17729 mRNA in marmoset models (TaqMan); format: in vivo
2552 mRNA [2] = assay: 2552 mRNA in marmoset livers (TaqMan); format: in vivo
9462 mRNA = 9462 mRNA regulation by lipid lowering drugs (TaqMan)
Source text: (§3) This example describes the TaqMan™ procedure. The Taqman™ procedure is a quantitative, reverse transcription PCR-based approach for detecting mRNA. The RT-PCR reaction exploits the 5′ nuclease activity of AmpliTaq Gold™ DNA Polymerase to cleave a TaqMan™ probe during PCR. Briefly, cDNA was generated from the samples of interest, e.g., heart, kidney, liver, skeletal muscle, and various vessels, and used as the starting material for PCR amplification. In addition to the 5′ and 3′ gene-specific primers, a gene-specific oligonucleotide probe (complementary to the region being amplified) was included in the reaction (i.e., the Taqman™ probe). […]
(§4) During the PCR reaction, cleavage of the probe separates the reporter dye and the quencher dye, resulting in increased fluorescence of the reporter. Accumulation of PCR products is detected directly by monitoring the increase in fluorescence of the reporter dye. When the probe is intact, the proximity of the reporter dye to the quencher dye results in suppression of the reporter fluorescence. […]

2569654 mRNA [3] = assay: 2569654 mRNA in marmoset models (TaqMan); format: in vivo
Source text: as §1, §2

19319 mRNA [4] = assay: 19319 mRNA in livers of marmosets (TaqMan); format: in vivo
9325 mRNA = 9325 mRNA in livers of marmosets (TaqMan); format: in vivo
Source text: as §3, §4

8925 mRNA = 8925 mRNA in livers of marmosets treated with lipid-lowering therapies (TaqMan); format: in vivo
10102 mRNA = 10102 mRNA regulation by lipid lowering drugs (TaqMan)
8921 mRNA [5] = assay: 8921 mRNA expression in marmosets; format: in vivo
21668 mRNA = 21668 mRNA in marmoset models treated with cholesterol lowering agents (TaqMan); format: in vivo
2552 mRNA [6] = assay: 2552 mRNA in livers of mice (TaqMan); format: in vivo
Source text: as §3, §4

8921 mRNA [7] = assay: 8921 mRNA in liver samples of mice treated with ciprofibrate (microarray); format: in vivo; details: liver samples of treated mice vs control liver samples, p=0.002
7301 mRNA = 7301 mRNA in livers of mice treated with ciprofibrate (TaqMan); format: in vivo; details: livers of mice during treatment
Source text: as §3, §4

16408 mRNA = 16408 mRNA in livers of mice treated with ciprofibrate (microarray); format: in vivo
554 mRNA = 554 mRNA in livers of mice treated with ciprofibrate (microarray); format: in vivo; details: livers of treated mice vs control liver samples, p=0.006
9380 mRNA [8] = assay: 9380 mRNA in livers of mice treated with ciprofibrate (TaqMan); format: in vivo
Source text: as §3, §4

54946 mRNA = 54946 mRNA in livers of mice, ciprofibrate (microarray or RT-PCR); format: in vivo; details: p=0.008
19319 mRNA [9] = assay: 19319 mRNA in livers of mice administered ciprofibrate (TaqMan); format: in vivo
Source text: as §3, §4

2569654 mRNA [10] = assay: 2569654 mRNA in livers of mice treated with Ciprofibrate (TaqMan); format: in vivo
Source text: as §3, §4

33770 mRNA = 33770 mRNA in livers of mice, ciprofibrate (TaqMan); format: in vivo; details: p=0.02
Source text: as §3, §4

112091 = 112091 expression in livers of wild-type mice treated with ciprofibrate; format: in vivo
43969 = 43969 expression in livers of mice administered ciprofibrate (TaqMan); format: in vivo
Source text: as §3, §4

9123 mRNA = 9123 mRNA in livers of mice treated with ciprofibrate (TaqMan); format: in vivo; details: livers of mice during treatment
Source text: as §3, §4

42028 = 42028 expression in livers of mice treated with ciprofibrate (microarray); format: in vivo

Molecule: cholestyramine
- 3533 mRNA expression (3533 mRNA): significantly downregulated
- 9380 mRNA expression (9380 mRNA [1]): upregulated
- 53656 mRNA upregulated (53656 mRNA): 1.8 fold
- 10653 mRNA expression (10653 mRNA): downregualted
- 8701 mRNA expression (8701 mRNA): upregulated
- 17729 mRNA expression (17729 mRNA): upregulated
- 2552 mRNA expression (2552 mRNA [2]): upregulated
- 9462 mRNA expression (9462 mRNA): upregulated
- 2569654 mRNA expression (2569654 mRNA [3]): upregulated
- 19319 mRNA expression (19319 mRNA [4]): upregulated
- 9325 mRNA upregulated (9325 mRNA): 1.4 fold
- 8925 mRNA expression (8925 mRNA): upregulated
- 10102 mRNA expression (10102 mRNA): significantly upregulated
- increase in 8921 mRNA expression (8921 mRNA [5]): 1.5 fold
- 21668 mRNA expression (21668 mRNA): marked increase

Molecule: CC(C)(Oc1ccc(C2CC2(Cl)Cl)cc1)C(=O)O (centres unmarked) [ciprofibrate]
- 2552 mRNA expression (2552 mRNA [6]): downregulate
- 8921 mRNA downregulated (8921 mRNA [7]): 0.59 fold
- 7301 mRNA expression (7301 mRNA): down-regulated
- 16408 mRNA expression (16408 mRNA): down-regulated
- 554 mRNA downregulated (554 mRNA): 0.68 fold
- 9380 mRNA expression (9380 mRNA [8]): downregulated
- 54946 mRNA upregulated (54946 mRNA): 2.0 fold
- 19319 mRNA expression (19319 mRNA [9]): upregulated
- 2569654 mRNA expression (2569654 mRNA [10]): significantly downregulated
- 33770 mRNA downregulated (33770 mRNA): 0.76 fold
- 112091 expression 112091: down-regulated
- 43969 expression 43969: downregulated
- 9123 mRNA expression (9123 mRNA): upregulated
- 42028 expression 42028: down-regulated
